Measurements published in ChEMBL document CHEMBL1137950, “Studies on 1-O-acetylbritannilactone and its derivative, (2-O-butyloxime-3-phenyl)-propionyl-1-O-acetylbritannilactone ester” (2004).
Values after ≈ are worked out from the molar mass of the structure shown.

Tests used:
HL-60 = experiment: Compound was tested for its cytotoxic activity against human HL-60 promyelocytic leukemia cell line; assay type: functional; conditions: read-out: ID50 (the source's name)
Bel-7402 = experiment: Compound was tested for its cytotoxic activity against human Bel-7402 Hepatocellular carcinoma cell line; assay type: functional; conditions: read-out: ID50 (the source's name)

Row | Structure (SMILES) | IC50 (HL-60) [µg/mL] | IC50 (Bel-7402) [µg/mL]
1 | C=C1C(=O)O[C@@H]2CC(C)=C([C@@H](C)CCCOC(C)=O)[C@H](OC(=O)/C(Cc3ccccc3)=N/OCCCC)[C@H]12 | 4.3 (≈ 8.18 µM) | 7.2 (≈ 13.7 µM)
2 | C=C1C(=O)O[C@@H]2CC(C)=C([C@@H](C)CCCOC(C)=O)[C@H](O)[C@H]12 | 18.4 (≈ 59.7 µM) | 15.6 (≈ 50.6 µM)
